Drawing on ChEMBL document CHEMBL1123642, “Design and synthesis of phosphonate inhibitors of glutamine synthetase” (J Med Chem, 1987), this text covers Relative activity for three molecules.

For experiment [1], the system named is glutamine synthetase (Pisum sativum). Description: Tested for the inhibition of Glutamine synthetase (Pea seed) activity using biosynthetic assay [[…] (pH 7), 5 mM MgCl2] at a concentration of 0.1 mM. The following applies: Lathyrus oleraceus.
The test system is the same in experiment [2]. Briefly: Tested for the inhibition of Glutamine synthetase (Pea seed) activity using biosynthetic assay [[…] (pH 7), 5 mM MgCl2] at a concentration of 1.0 mM. To be noted: Lathyrus oleraceus.
For experiment [3] the test system is unchanged. Description: Tested for the inhibition of Glutamine synthetase (Pea seed) activity using biosynthetic assay [[…] (pH 7), 5 mM MgCl2] at a concentration of 10.0 mM. To be noted: Lathyrus oleraceus.
Experiment [4] deals with glutamine synthetase (Ovis aries). Briefly: Tested for the inhibition of Glutamine synthetase (Ovine brain) activity using biosynthetic assay [[…] (pH 7), 5 mM MgCl2] at a concentration of 0.1 mM.
For experiment [5] the test system is unchanged. Description: Tested for the inhibition of Glutamine synthetase (Ovine brain) activity using biosynthetic assay [[…] (pH 7), 5 mM MgCl2] at a concentration of 1.0 mM.
For experiment [6] the test system is unchanged. Description: Tested for the inhibition of Glutamine synthetase (Ovine brain) activity using biosynthetic assay [[…] (pH 7), 5 mM MgCl2] at a concentration of 10.0 mM.
In experiment [7] the target is glutamine synthetase (Escherichia coli) (UniProt P0A9C5). Description: Tested for the inhibition of Glutamine synthetase (Escherichia coli) activity using biosynthetic assay [[…] (pH 7), 5 mM MgCl2] at a concentration of 0.1 mM.
The target is the same in experiment [8]. Briefly: Tested for the inhibition of Glutamine synthetase (Escherichia coli) activity using biosynthetic assay [[…] (pH 7), 5 mM MgCl2] at a concentration of 1.0 mM.
The target is the same in experiment [9]. Description: Tested for the inhibition of Glutamine synthetase (Escherichia coli) activity using biosynthetic assay [[…] (pH 7), 5 mM MgCl2] at a concentration of 10.0 mM.
Experiment [10] deals with glutamine synthetase (Pisum sativum). Briefly: Tested for the inhibition of Glutamine synthetase (Pea seed) activity using Gamma-glutamyl transferase assay [[…] (pH 7), 5 mM MgCl2] at a concentration of 1.0 mM. The following applies: Lathyrus oleraceus.
For experiment [11] the test system is unchanged. Description: Tested for the inhibition of Glutamine synthetase (Pea seed) activity using Gamma-glutamyl transferase assay [[…] (pH 7), 5 mM MgCl2] at a concentration of 0.1 mM. The following applies: Lathyrus oleraceus.
The test system is the same in experiment [12]. Briefly: Tested for the inhibition of Glutamine synthetase(Pea seed) activity using Gamma-glutamyl transferase assay [[…] (pH 7), 5 mM MgCl2] at a concentration of 10.0 mM. The following applies: Lathyrus oleraceus.
The subject of experiment [13] is glutamine synthetase (Ovis aries). Description: Tested for the inhibition of Glutamine synthetase (Ovine brain) activity using Gamma-glutamyl transferase assay [[…] (pH 7), 5 mM MgCl2] at a concentration of 0.1 mM.
Experiment [14] shares this test system. Description: Tested for the inhibition of Glutamine synthetase (Ovine brain) activity using Gamma-glutamyl transferase assay [[…] (pH 7), 5 mM MgCl2] at a concentration of 1.0 mM.
The test system is the same in experiment [15]. Briefly: Tested for the inhibition of Glutamine synthetase (Ovine brain) activity using Gamma-glutamyl transferase assay [[…] (pH 7), 5 mM MgCl2] at a concentration of 10.0 mM.
The target in experiment [16] is glutamine synthetase (Escherichia coli) (UniProt P0A9C5). Description: Tested for the inhibition of Glutamine synthetase (Escherichia coli) activity using Gamma-glutamyl transferase assay [[…] (pH 7), 5 mM MgCl2] at a concentration of 0.1 mM.
Experiment [17] has the same target. Briefly: Tested for the inhibition of Glutamine synthetase (Escherichia coli) activity using Gamma-glutamyl transferase assay [[…] (pH 7), 5 mM MgCl2] at a concentration of 1.0 mM.
Experiment [18] has the same target. Description: Tested for the inhibition of Glutamine synthetase (Escherichia coli) activity using Gamma-glutamyl transferase assay [[…] (pH 7), 5 mM MgCl2] at a concentration of 10.0 mM.
Experiment [19] concerns glutamine synthetase (Pisum sativum). Briefly: Tested for the inhibition of Glutamine synthetase (Pea seed) activity using biosynthetic assay [[…] (pH 7), 5 mM MgCl2] at a concentration of 0 mM. The following applies: Lathyrus oleraceus.
The test system of experiment [20] is glutamine synthetase (Ovis aries). Briefly: Tested for the inhibition of Glutamine synthetase (Ovine brain) activity using biosynthetic assay [[…] (pH 7), 5 mM MgCl2] at a concentration of 0 mM.
Experiment [21] addresses glutamine synthetase (Escherichia coli) (UniProt P0A9C5). Description: Tested for the inhibition of Glutamine synthetase (Escherichia coli) activity using biosynthetic assay [[…] (pH 7), 5 mM MgCl2] at a concentration of 0 mM.
Experiment [22] has as its system glutamine synthetase (Pisum sativum). Description: Tested for the inhibition of Glutamine synthetase (Pea seed) activity using Gamma-glutamyl transferase assay [[…] (pH 7), 5 mM MgCl2] at a concentration of 0 mM. The following applies: Lathyrus oleraceus.
For experiment [23] the test system is unchanged. Briefly: Tested for the inhibition of Glutamine synthetase (Pea seed) activity using Gamma-glutamyl transferase assay [[…] (pH 7), 5 mM MgCl2] at a concentration of 10.0 mM. The following applies: Lathyrus oleraceus.
For experiment [24], the system named is glutamine synthetase (Ovis aries). Description: Tested for the inhibition of Glutamine synthetase (Ovine brain) activity using Gamma-glutamyl transferase assay [[…] (pH 7), 5 mM MgCl2] at a concentration of 0 mM.
The target of experiment [25] is glutamine synthetase (Escherichia coli) (UniProt P0A9C5). Description: Tested for the inhibition of Glutamine synthetase (Escherichia coli) activity using Gamma-glutamyl transferase assay [[…] (pH 7), 5 mM MgCl2] at a concentration of 0 mM.

Chain of glutamine synthetase (Escherichia coli) (P0A9C5 whole entry, looked up): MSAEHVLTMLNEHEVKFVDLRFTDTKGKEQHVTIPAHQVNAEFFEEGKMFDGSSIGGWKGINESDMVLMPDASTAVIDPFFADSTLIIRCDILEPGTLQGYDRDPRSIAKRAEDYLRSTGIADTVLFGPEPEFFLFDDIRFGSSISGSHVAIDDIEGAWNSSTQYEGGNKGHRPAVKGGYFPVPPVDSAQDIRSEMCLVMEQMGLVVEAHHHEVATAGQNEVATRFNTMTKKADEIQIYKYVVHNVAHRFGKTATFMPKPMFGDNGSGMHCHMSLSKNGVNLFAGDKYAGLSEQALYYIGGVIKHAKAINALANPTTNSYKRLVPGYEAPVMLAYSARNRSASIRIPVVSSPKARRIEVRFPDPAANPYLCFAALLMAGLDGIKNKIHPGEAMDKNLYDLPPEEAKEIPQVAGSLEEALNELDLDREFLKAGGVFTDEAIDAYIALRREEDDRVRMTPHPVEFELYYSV

On to `CC(N)(CCS(=O)(=O)CP(=O)(O)O)C(=O)O` (stereo not given), for which the Relative activity in experiment [1] was 1.1; in experiment [2], 0.8; in experiment [3] it was 0.85; in experiment [4] it was 1.2; in experiment [5], 1; in experiment [6], 1. The Relative activity in [7] was determined as 1.1; in experiment [8], 1; in [9], 1; in experiment [10] it was 0.9; in experiment [11], 0.8; in experiment [12], 0.9. The Relative activity was found to be 0.95 in experiment [13]; 0.9 in [14]; 0.8 in experiment [15]; 1.1 in experiment [16]; 1.1 in experiment [17]; 1 in [18].

Take `CC(N)(CCSCP(=O)(O)O)C(=O)O` (stereo not given): the Relative activity in experiment [19] was 1; in experiment [1], 1; in experiment [2], 1.2; in experiment [3], 0.5; in experiment [20], 1; in experiment [4] it was 1. Also, the Relative activity in experiment [5] was determined as 1; in [6], 1.2; in [21], 1; in experiment [7] it was 1; in experiment [8], 1.95; in experiment [9], 1.25. For the same molecule, the Relative activity in experiment [22], in experiment [10], in experiment [11], in [23], in experiment [24] and in [13] was 1 each time. Besides, the Relative activity amounted to 1 in experiment [14]; 1.1 in experiment [15]; 1 in experiment [25]; 1.1 in experiment [16]; 1.4 in [17]; 1.5 in [18].

Turning to `CC(N)(CC[S+]([O-])CP(=O)(O)O)C(=O)O` (stereo not given), the Relative activity was 1.1 in [1]; 1.1 in experiment [2]; 0.75 in experiment [3]; 1.2 in experiment [4]; 1.2 in [5]; 1 in [6]. In addition, the Relative activity in [7] stood at 1.2; in [8], 1.2; in experiment [9], 0.95; in experiment [10], 0.9; in experiment [11] it was 0.9; in [23], 1. The Relative activity came out at 1 in experiment [13]; 1 in experiment [14]; 1.2 in experiment [15]; 1 in experiment [16]; 1 in experiment [17]; 1.5 in experiment [18].
